One block for each compound: values may come before it.
Experiments:
TDO [1] = biological target: T1, TDO (Homo sapiens, UniProt P48775); experiment: A172 kynurenine cell-based assay; design: This assay utilised cancer cells which expressed either TDO or IDO; endogenous in cells; host or cells: A172 (human glioblastoma); settings: A172 human glioblastoma cells, 48 hours, 500 μM L-tryptophan; read-out: A172 Kynurenine cell based assay pIC50 (converted)
Outline: (§1)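 First, A172 or SKOV3 cells were seeded in phenol red-free RPMI, 10% FCS, 2 mM L-glutamine, 500 μM L-tryptophan; SKOV3 received 500 ng/ml IFN-γ for IDO induction. Next came compound exposure, 48 hours, 37° C. Finally, cells were spun out, supernatant treated with Erhlich's reagent, absorbance read at 490 nm.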

IDO [2] = biological target: T2, IDO (Homo sapiens, UniProt P14902); experiment: hIDO biochemical coupled assay; settings: 45 μM L-tryptophan, 17 minutes, room temperature; read-out: hIDO biochemical assay pIC50 (converted)
T2 sequence (P14902 whole entry): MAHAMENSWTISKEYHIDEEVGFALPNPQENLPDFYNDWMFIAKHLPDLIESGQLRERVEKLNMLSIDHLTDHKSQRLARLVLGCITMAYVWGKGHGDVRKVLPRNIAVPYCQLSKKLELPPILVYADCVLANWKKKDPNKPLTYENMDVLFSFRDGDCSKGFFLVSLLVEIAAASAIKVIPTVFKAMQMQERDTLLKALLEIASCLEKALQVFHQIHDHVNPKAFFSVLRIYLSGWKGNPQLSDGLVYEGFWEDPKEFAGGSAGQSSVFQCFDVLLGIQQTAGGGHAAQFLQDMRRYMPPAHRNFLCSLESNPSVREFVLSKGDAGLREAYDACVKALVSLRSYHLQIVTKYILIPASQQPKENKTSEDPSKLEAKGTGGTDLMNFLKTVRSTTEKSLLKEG

TDO [3] = biological target: T1, TDO; experiment: hTDO biochemical coupled assay; settings: 330 μM L-tryptophan, 17 minutes, room temperature; read-out: hTDO biochemical assay pIC50 (converted)
IDO [4] = biological target: T2, IDO; experiment: SKOV3 kynurenine cell-based assay (IDO induced by IFN-γ); design: IDO expression was induced in the SKOV3 cells by the addition of 500 ng/ml IFN-γ; endogenous in cells; host or cells: SKOV3 (human ovarian adenocarcinoma), induced with IFN-γ; settings: SKOV3 human ovarian adenocarcinoma cells, 500 ng/ml IFN-γ, 48 hours, 500 μM L-tryptophan; read-out: SKOV3 Kynurenine cell based assay pIC50 (converted)
Outline: as §1

T1 sequence (P48775 whole entry): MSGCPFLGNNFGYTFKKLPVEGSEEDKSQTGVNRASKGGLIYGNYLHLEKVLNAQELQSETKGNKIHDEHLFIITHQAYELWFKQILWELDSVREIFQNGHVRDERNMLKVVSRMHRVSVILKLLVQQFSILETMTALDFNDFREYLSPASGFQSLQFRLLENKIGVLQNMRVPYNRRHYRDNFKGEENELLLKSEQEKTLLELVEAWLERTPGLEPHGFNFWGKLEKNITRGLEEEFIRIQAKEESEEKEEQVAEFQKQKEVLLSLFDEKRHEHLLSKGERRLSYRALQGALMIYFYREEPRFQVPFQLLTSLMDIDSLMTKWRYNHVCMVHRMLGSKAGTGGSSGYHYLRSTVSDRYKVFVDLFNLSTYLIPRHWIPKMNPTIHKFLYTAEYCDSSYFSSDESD

SMILES: CS(=O)(=O)c1ccc(Oc2cc(Cl)cc3[nH]ncc23)cc1 [Compound 368]
IC50 (TDO [1]): 3.24 to 31.6 µM
IC50 (IDO [2]): > 100 µM
IC50 (TDO [3]): 3.24 to 31.6 µM
IC50 (IDO [4]): 3.24 to 31.6 µM

SMILES: Cn1ncc2c1CCN(c1cc(Cl)cc3[nH]ncc13)C2 [Compound 369]
IC50 (TDO [1]): < 3.16 µM
IC50 (IDO [2]): 3.24 to 31.6 µM
IC50 (TDO [3]): < 3.16 µM
IC50 (IDO [4]): 3.24 to 31.6 µM

SMILES: CC1(C)CN(c2cc(C(F)F)cc3[nH]ncc23)CCN1S(C)(=O)=O [Compound 370]
IC50 (TDO [1]): < 3.16 µM
IC50 (IDO [2]): < 3.16 µM
IC50 (TDO [3]): < 3.16 µM
IC50 (IDO [4]): < 3.16 µM

SMILES: O=C1CCCN1C1CCN(c2cc(Cl)cc3[nH]ncc23)CC1 [Compound 372]
IC50 (TDO [1]): < 3.16 µM
IC50 (IDO [2]): > 100 µM
IC50 (TDO [3]): < 3.16 µM
IC50 (IDO [4]): 3.24 to 31.6 µM

SMILES: CS(=O)(=O)NCCn1cc(-c2cc(Cl)cc3[nH]ncc23)cn1 [Compound 373]
IC50 (TDO [1]): < 3.16 µM
IC50 (IDO [2]): > 100 µM
IC50 (TDO [3]): 3.24 to 31.6 µM
IC50 (IDO [4]): 32.4 to 100 µM

SMILES: Clc1cc(N2CCN(c3ccncc3)CC2)c2cn[nH]c2c1 [Compound 374]
IC50 (TDO [1]): < 3.16 µM
IC50 (IDO [2]): > 100 µM
IC50 (TDO [3]): 3.24 to 31.6 µM
IC50 (IDO [4]): 32.4 to 100 µM

SMILES: Clc1cc(N2CCN(c3cccnc3)CC2)c2cn[nH]c2c1 [Compound 375]
IC50 (TDO [1]): < 3.16 µM
IC50 (IDO [2]): > 100 µM
IC50 (TDO [3]): < 3.16 µM
IC50 (IDO [4]): 3.24 to 31.6 µM

SMILES: Cc1nn(C)c2c1CN(c1cc(Cl)cc3[nH]ncc13)CC2 [Compound 376]
IC50 (TDO [1]): < 3.16 µM
IC50 (IDO [2]): > 100 µM
IC50 (TDO [3]): < 3.16 µM
IC50 (IDO [4]): 3.24 to 31.6 µM

SMILES: Cc1c2c(nn1C)CCN(c1cc(Cl)cc3[nH]ncc13)C2 [Compound 378]
IC50 (TDO [1]): < 3.16 µM
IC50 (IDO [2]): > 100 µM
IC50 (TDO [3]): < 3.16 µM
IC50 (IDO [4]): 3.24 to 31.6 µM

SMILES: CS(=O)(=O)N1CCC(c2cc(N3CCCC3)cc3[nH]ncc23)CC1 [Compound 383]
IC50 (TDO [1]): 32.4 to 100 µM
IC50 (IDO [2]): > 100 µM
IC50 (TDO [3]): > 100 µM
IC50 (IDO [4]): > 100 µM

SMILES: CS(=O)(=O)c1ccc(-c2cc(Cl)cc3[nH]ncc23)c(Cl)c1 [Compound 384]
IC50 (TDO [1]): < 3.16 µM
IC50 (IDO [2]): 3.24 to 31.6 µM
IC50 (TDO [3]): < 3.16 µM
IC50 (IDO [4]): 3.24 to 31.6 µM

SMILES: CS(=O)(=O)N1CCC(c2cc(C(F)F)cc3[nH]ncc23)CC1 [Compound 387]
IC50 (TDO [1]): < 3.16 µM
IC50 (IDO [2]): 3.24 to 31.6 µM
IC50 (TDO [3]): < 3.16 µM
IC50 (IDO [4]): 3.24 to 31.6 µM

SMILES: O=C1NC2(CCN(c3cc(Cl)cc4[nH]ncc34)CC2)C(=O)N1CC1CCCCC1 [Compound 389]
IC50 (TDO [1]): < 3.16 µM
IC50 (IDO [2]): < 3.16 µM
IC50 (TDO [3]): < 3.16 µM
IC50 (IDO [4]): < 3.16 µM

SMILES: O=C1NC2(CCN(c3cc(Cl)cc4[nH]ncc34)CC2)C(=O)N1CC1CC1 [Compound 390]
IC50 (TDO [1]): < 3.16 µM
IC50 (IDO [2]): < 3.16 µM
IC50 (TDO [3]): < 3.16 µM
IC50 (IDO [4]): < 3.16 µM

SMILES: O=C1NC2(CCN(c3cc(Cl)cc4[nH]ncc34)CC2)C(=O)N1CC1CCOCC1 [Compound 391]
IC50 (TDO [1]): < 3.16 µM
IC50 (IDO [2]): < 3.16 µM
IC50 (TDO [3]): < 3.16 µM
IC50 (IDO [4]): < 3.16 µM

Further lines, results first:

IC50 (TDO [1]): < 3.16 µM
IC50 (IDO [2]): 3.24 to 31.6 µM
IC50 (TDO [3]): < 3.16 µM
IC50 (IDO [4]): 3.24 to 31.6 µM
SMILES: NS(=O)(=O)N1CC2(CCN(c3cc(Cl)cc4[nH]ncc34)CC2)C1 [Compound 367]

IC50 (TDO [1]): 3.24 to 31.6 µM
IC50 (IDO [2]): > 100 µM
IC50 (TDO [3]): < 3.16 µM
IC50 (IDO [4]): 3.24 to 31.6 µM
SMILES: O=C1Nc2ccccc2C12CCN(c1cc(Cl)cc3[nH]ncc13)CC2 [Compound 371]

IC50 (TDO [1]): < 3.16 µM
IC50 (IDO [2]): 32.4 to 100 µM
IC50 (TDO [3]): < 3.16 µM
IC50 (IDO [4]): 3.24 to 31.6 µM
SMILES: CNC(=O)NC1CCN(c2cc(Cl)cc3[nH]ncc23)CC1 [Compound 377]

IC50 (TDO [1]): < 3.16 µM
IC50 (IDO [2]): > 100 µM
IC50 (TDO [3]): < 3.16 µM
IC50 (IDO [4]): > 100 µM
SMILES: CC(=O)NCCN1CCN(c2cc(Cl)cc3[nH]ncc23)CC1 [Compound 379]

IC50 (TDO [1]): 3.24 to 31.6 µM
IC50 (IDO [2]): > 100 µM
IC50 (TDO [3]): 3.24 to 31.6 µM
IC50 (IDO [4]): 3.24 to 31.6 µM
SMILES: CN1CNC(=O)C12CCN(c1cc(Cl)cc3[nH]ncc13)CC2 [Compound 380]

IC50 (TDO [1]): < 3.16 µM
IC50 (IDO [2]): > 100 µM
IC50 (TDO [3]): < 3.16 µM
IC50 (IDO [4]): 3.24 to 31.6 µM
SMILES: CNC(=O)C1(C)CCN(c2cc(Cl)cc3[nH]ncc23)CC1 [Compound 382]

IC50 (TDO [1]): < 3.16 µM
IC50 (IDO [2]): < 3.16 µM
IC50 (TDO [3]): < 3.16 µM
IC50 (IDO [4]): < 3.16 µM
SMILES: CC(C)CN1C(=O)NC2(CCN(c3cc(Cl)cc4[nH]ncc34)CC2)C1=O [Compound 388]
